# Measurements: patent publication US20080188483A1, “Compounds and Compositions as Protein Kinase Inhibitors” (IRM LLC, priority 2006, published 2008)
# What was measured:
# [1] = molecular target: T1, PDGFRβ (Ba/F3-Tel-PDGFRβ) (Homo sapiens, UniProt P09619); assay: PDGFRβ cellular assay (Ba/F3-Tel-PDGFRβ proliferation); type: cell-based; conditions: read-out: IC50 against PDGFRβ in the cellular assay
# T1 construct: expressed in transfected cells; host or cells: Ba/F3; the other entry of the earlier key: ETV6 (P41212, Transcription factor ETV6)
# T1 sequence (P09619 600-962 limits assumed): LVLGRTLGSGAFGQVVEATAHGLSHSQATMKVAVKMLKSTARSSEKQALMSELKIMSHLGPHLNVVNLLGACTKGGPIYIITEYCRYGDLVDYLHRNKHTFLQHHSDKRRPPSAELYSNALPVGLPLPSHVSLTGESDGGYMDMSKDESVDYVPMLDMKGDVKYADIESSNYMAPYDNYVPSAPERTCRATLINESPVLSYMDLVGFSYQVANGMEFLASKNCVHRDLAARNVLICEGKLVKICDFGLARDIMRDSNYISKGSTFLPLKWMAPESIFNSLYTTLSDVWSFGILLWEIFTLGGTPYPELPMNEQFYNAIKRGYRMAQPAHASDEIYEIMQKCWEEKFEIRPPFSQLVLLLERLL
# [2] = molecular target: b-Raf (Homo sapiens, UniProt P15056); assay: b-Raf enzymatic assay; type: biochemical
# Chain of b-Raf (P15056 whole entry): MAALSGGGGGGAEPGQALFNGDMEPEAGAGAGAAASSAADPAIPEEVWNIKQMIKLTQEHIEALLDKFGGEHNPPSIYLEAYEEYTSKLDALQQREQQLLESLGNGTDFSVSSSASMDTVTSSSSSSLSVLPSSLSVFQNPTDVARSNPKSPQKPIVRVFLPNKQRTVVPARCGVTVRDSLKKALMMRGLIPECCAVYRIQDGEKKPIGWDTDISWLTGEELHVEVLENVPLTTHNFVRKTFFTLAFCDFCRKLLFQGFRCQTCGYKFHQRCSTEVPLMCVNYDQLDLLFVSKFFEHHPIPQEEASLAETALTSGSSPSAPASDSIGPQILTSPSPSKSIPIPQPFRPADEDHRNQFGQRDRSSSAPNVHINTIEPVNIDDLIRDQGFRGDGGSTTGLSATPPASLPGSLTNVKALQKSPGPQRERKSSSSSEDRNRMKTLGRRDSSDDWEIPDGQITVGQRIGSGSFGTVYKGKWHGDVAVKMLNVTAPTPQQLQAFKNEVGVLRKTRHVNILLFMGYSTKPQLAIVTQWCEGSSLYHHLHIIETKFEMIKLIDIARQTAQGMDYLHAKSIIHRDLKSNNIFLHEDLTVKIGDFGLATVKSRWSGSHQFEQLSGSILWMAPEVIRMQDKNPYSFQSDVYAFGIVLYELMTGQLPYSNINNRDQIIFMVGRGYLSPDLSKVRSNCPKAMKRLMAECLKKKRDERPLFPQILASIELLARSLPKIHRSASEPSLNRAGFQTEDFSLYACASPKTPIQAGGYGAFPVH
# Description: Compounds of the invention are tested for their ability to inhibit the activity of b-Raf. The assay is carried out in 384-well MaxiSorp plates (NUNC) with black walls and clear bottom. The substrate, IκBα: is diluted in DPBS (1:750) and 15 μl is added to each well. The plates are incubated at 4° C. overnight and washed 3 times with TBST (25 mM Tris, pH 8.0, 150 mM NaCl and 0.05% Tween-20) using the EMBLA plate washer. Plates are blocked by Superblock (15 μl/well) for 3 hours at room temperature, washed 3 times with TBST and pat-dried. Assay buffer containing 20 μM ATP (10 μl) is added to each well followed by 100 nl or 500 nl of compound. B-Raf is diluted in the assay buffer (1 μl into 25 μl) and 10 μl of diluted b-Raf is added to each well (0.4 μg/well). The plates are incubated at room temperature for 2.5 hours. The kinase reaction is stopped by washing the plates 6 times with TBST. Phosph-IκBα (Ser32/36) antibody is diluted in Superblock (1:10,000) and […] is added to each well. The plates are incubated at 4° C. overnight and washed 6 times with TBST. AP-conjugated goat-anti-mouse IgG is diluted in Superblock (1:1,500) and 15 μl is added to each well. Plates are incubated at room temperature for 1 hour and washed 6 times with TBST. […] Plates are read on Acquest or Analyst GT using a Fluorescence Intensity Program (Excitation 455 nm, Emission 580 nm).
smiles,measurement,setting,value
"Cc1cn(-c2cc(C(=O)Nc3ccc(C)c(Nc4nccn4-c4ncnc5[nH]ccc45)c3)cc(C(F)(F)F)c2)cn1 [Example 2, 3-(4-methyl-imidazol-1-yl)-N-{4-methyl-3-[1-(7H-pyrrolo[2,3-d]pyrimidin-4-yl)-1H-imidazol-2-ylamino]-phenyl}-5-trifluoromethyl-benzamide]",IC50,[1],4 nM
same,IC50,[2],2 nM
